Laboratory results reported in patent EP0799834A1, “Modified nucleotides” (priority 1996, dated 1997).

Legend:
Assay type in all cases: biochemical
HIV-1RT = target: T1, HIV-1RT (Human immunodeficiency virus type 1 group M subtype B, UniProt P04585); experiment: Chain elongation: addition of modified nucleotide to primer by reverse transcriptase (gel autoradiography); parameters: key to addition of modified nucleotide to the primer: +: slow addition of modified nucleotide to the primer; ++: good addition of modified nucleotide to the primer; -: no addition of modified nucleotide to the primer; details: HIV-1RT 0.13 units; modified nucleotide 100 µM; dATP, dGTP, dCTP 1.0 µM each; 37°C
T1 construct: HIV-1RT
Experimental: (§1) The triposphates of the modified nucleotides are synthesized as described by Kovács & Ötvös (Tetrahedron Lett. (1988), 29, […]) • 5' P^32-[…]-OH SEQ ID NO:1 • 3' HO-[…]-OH SEQ ID NP:2
(§2) A solution of template (3.0 pmol of SEQ ID NO:2) and radioactive primer (0.8 pmol of SEQ ID NO:1) in 72 µl buffer (20 mM Tris-HCl, pH 7.5; 6 mM MgCl2; 40 mM KCl; 0.5 mM DTT) are heated to 80°C and allowed to cool down to 25°C within one hour. To this solution polymerase (see table 1) is added. Aliquots of thereof are mixed with 4 µl of a solution comprising dATP, dGTP, dCTP and the modified nucleotide (see table 1), resulting in a final concentration of dATP, dGTP and dCTP as provided in table 1 and a final concentration of the modified nucleotide of 100 µM. The solutions are incubated at 37°C and the elongation reaction is stopped by addition of 5 µl of a solution of formamide comprising 5 mM EDTA (pH 8.0).
(§3) 3-5 µl of these solutions are subjected to a polyacrylamide gel (19 % acrylamide, 7 M urea). After electrophoresis the gel is transferred to a filter paper, dried and analyzed using autoradiography (see table 2).

T7 sequenase version 2 = T7 sequenase version 2 (Escherichia phage T7, UniProt P00581, DEL118-145); experiment: Chain elongation: addition of modified nucleotide to primer by polymerase (gel autoradiography); parameters: key: +: slow addition of modified nucleotide to the primer; ++: good addition of modified nucleotide to the primer; -: no addition of modified nucleotide to the primer; details: T7 sequenase version 2 0.13 units; modified nucleotide 100 µM; dATP, dGTP, dCTP 2.5 µM each; 37°C
Sequence of T7 sequenase version 2 (P00581 other isoform, or with tags, fused parts or gaps DEL118-145): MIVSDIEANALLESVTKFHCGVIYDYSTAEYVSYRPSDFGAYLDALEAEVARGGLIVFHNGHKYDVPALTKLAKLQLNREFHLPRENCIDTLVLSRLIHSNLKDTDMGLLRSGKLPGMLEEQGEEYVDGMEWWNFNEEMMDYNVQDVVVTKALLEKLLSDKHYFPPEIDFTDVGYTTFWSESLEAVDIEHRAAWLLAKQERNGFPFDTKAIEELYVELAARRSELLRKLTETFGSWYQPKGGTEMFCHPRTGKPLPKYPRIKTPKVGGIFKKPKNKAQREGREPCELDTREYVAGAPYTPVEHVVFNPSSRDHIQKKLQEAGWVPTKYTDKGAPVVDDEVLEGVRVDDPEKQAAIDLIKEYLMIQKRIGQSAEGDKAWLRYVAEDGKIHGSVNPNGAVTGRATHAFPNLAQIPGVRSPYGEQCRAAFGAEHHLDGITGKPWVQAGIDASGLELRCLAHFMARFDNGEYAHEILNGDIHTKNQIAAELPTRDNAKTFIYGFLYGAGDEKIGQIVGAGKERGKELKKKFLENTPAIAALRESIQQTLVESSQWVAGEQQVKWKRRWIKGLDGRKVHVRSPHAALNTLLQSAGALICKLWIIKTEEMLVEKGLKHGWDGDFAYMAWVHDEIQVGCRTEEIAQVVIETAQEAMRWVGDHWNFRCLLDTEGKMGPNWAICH
Sequence of T7 sequenase version 2 (P0AA25 2-109, stated change not applied, further chain): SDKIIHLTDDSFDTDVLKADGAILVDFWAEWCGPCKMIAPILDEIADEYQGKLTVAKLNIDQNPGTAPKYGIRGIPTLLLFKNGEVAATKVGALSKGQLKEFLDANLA
Experimental: as §1, §2, §3

Klenow = target: T2, Klenow (Escherichia coli, UniProt P00582); experiment: as above; parameters: key: +: slow addition of modified nucleotide to the primer; ++: good addition of modified nucleotide to the primer; -: no addition of modified nucleotide to the primer; details: Klenow 1.5 units; modified nucleotide 100 µM; dATP, dGTP, dCTP 0.5 µM each; 37°C
T2 construct: Klenow
T2 sequence (P00582 324-928): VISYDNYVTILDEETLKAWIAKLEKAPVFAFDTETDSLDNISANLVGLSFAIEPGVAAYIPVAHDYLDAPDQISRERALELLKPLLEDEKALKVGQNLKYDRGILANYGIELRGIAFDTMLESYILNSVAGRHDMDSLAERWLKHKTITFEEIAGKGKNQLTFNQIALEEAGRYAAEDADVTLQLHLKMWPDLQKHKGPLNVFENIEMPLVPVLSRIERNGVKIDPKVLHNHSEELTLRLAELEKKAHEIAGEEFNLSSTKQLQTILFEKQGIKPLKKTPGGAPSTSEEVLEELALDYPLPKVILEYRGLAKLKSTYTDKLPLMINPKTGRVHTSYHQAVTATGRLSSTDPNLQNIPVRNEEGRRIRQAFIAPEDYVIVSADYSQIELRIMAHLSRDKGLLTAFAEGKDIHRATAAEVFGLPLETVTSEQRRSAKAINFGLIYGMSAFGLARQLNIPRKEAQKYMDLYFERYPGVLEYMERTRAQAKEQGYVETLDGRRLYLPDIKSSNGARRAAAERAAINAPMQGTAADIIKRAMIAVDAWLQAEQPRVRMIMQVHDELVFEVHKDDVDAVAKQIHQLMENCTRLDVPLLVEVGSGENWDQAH
Experimental: as §1, §2, §3

M-MuLV RT = target: T3, M-MuLV RT (Moloney murine leukemia virus, UniProt P03355); experiment: Chain elongation: addition of modified nucleotide to primer by reverse transcriptase (gel autoradiography); parameters: key: +: slow addition of modified nucleotide to the primer; ++: good addition of modified nucleotide to the primer; -: no addition of modified nucleotide to the primer; details: M-MuLV RT 9 units; modified nucleotide 100 µM; dATP, dGTP, dCTP 15.0 µM each; 37°C
T3 construct: M-MuLV RT
Experimental: as §1, §2, §3

AMV RT = experiment: as above; parameters: key: +: slow addition of modified nucleotide to the primer; ++: good addition of modified nucleotide to the primer; -: no addition of modified nucleotide to the primer; details: AMV RT 2.0 units; modified nucleotide 100 µM; dATP, dGTP, dCTP 0.5 µM each; 37°C
Experimental: as §1, §2, §3

Row | SMILES | addition of modified nucleotide to the primer (HIV-1RT) | addition of modified nucleotide to the primer (T7 sequenase version 2) | addition of modified nucleotide to the primer (Klenow) | addition of modified nucleotide to the primer (M-MuLV RT) | addition of modified nucleotide to the primer (AMV RT) | elongation after addition of modified nucleotide (HIV-1RT)
1 | Cc1cn([C@H]2C[C@H](O)[C@](COP(=O)(O)OP(=O)(O)OP(=O)(O)O)(C(=O)c3ccccc3)O2)c(=O)[nH]c1=O [R^1=C6H5] | ++ | - | - | - | ++ | 
2 | CCC(=O)[C@]1(COP(=O)(O)OP(=O)(O)OP(=O)(O)O)O[C@@H](n2cc(C)c(=O)[nH]c2=O)C[C@@H]1O [R^1=CH3CH2] | ++ | ++ | + | ++ | ++ | 
3 | CC(=O)[C@]1(COP(=O)(O)OP(=O)(O)OP(=O)(O)O)O[C@@H](n2cc(C)c(=O)[nH]c2=O)C[C@@H]1O [R^1=CH3] | ++ | ++ | ++ | ++ | ++ | elongation
4 | Cc1cn([C@H]2C[C@H](O)[C@](COP(=O)(O)OP(=O)(O)OP(=O)(O)O)(C(=O)C(C)(C)C)O2)c(=O)[nH]c1=O [R^1=t-butyl] | - | - | - | - | - | 
